Assay results: ChEMBL document CHEMBL4152285, “Structure-based design and profiling of novel 17β-HSD14 inhibitors” (Eur J Med Chem, 2018)
Values after ≈ are worked out from the molar mass of the structure shown. Active and inactive are the calls of the source. The calls are words filed in the database; no cut-off is given here.

Tests used:
[1] = target: T1, 17-beta-hydroxysteroid dehydrogenase type 1 (Homo sapiens) (UniProt P14061); assay: Inhibition of human placental cytosolic 17beta-HSD1 using [2,4,6,7-3H]-labeled E1/E1 as substrate and NADH at 1 uM after 10 mins by HPLC based radioflow detection method
T1 sequence (whole entry): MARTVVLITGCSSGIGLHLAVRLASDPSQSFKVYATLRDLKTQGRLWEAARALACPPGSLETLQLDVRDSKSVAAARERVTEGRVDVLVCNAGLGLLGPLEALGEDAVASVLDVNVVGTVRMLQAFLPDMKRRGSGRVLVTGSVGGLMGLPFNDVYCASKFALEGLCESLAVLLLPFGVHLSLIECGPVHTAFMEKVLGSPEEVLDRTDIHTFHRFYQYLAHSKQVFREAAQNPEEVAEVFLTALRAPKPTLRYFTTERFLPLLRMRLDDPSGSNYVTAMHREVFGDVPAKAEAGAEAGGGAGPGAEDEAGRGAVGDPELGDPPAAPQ

[2] = Solubility of the compound in PBS at 200 uM at pH 7.4 measured after 24 hrs; format: physicochemical
[3] = target: T2, 17-beta-hydroxysteroid dehydrogenase 14 (Homo sapiens, UniProt Q9BPX1); assay: Binding affinity to recombinant 17beta-HSD14 (unknown origin) expressed in Escherichia coli BL21 pLysS strain using E2 as substrate in presence of NAD measured continuously for 15 mins by fluorimetric method
T2 sequence (Q9BPX1 whole entry): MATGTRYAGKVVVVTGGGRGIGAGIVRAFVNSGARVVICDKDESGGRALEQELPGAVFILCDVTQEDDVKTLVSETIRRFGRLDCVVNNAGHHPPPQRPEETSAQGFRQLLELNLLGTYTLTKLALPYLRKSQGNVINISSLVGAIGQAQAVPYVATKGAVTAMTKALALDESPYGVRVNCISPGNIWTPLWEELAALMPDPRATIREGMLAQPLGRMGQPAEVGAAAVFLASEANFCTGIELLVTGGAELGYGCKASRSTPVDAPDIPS

[4] = target: T3, 17-beta-hydroxysteroid dehydrogenase type 2 (Homo sapiens) (UniProt P37059); assay: Inhibition of human placental cytosolic 17beta-HSD2 using [2,4,6,7-3H]-labeled E2/E2 as substrate and NADH at 1 uM after 10 mins by HPLC based radioflow detection method
T3 sequence (whole entry): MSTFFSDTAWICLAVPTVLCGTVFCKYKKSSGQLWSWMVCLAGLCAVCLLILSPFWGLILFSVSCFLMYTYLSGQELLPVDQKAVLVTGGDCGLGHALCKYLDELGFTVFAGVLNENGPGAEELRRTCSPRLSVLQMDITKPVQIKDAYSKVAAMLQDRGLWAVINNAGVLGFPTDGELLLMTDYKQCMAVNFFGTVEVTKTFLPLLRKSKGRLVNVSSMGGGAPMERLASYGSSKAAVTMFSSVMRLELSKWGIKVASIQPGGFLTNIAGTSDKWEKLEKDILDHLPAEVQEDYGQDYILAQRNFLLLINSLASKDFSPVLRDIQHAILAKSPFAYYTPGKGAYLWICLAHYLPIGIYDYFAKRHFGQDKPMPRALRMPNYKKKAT

[5] = target: T4, 3-hydroxyacyl-CoA dehydrogenase type-2 (Homo sapiens) (UniProt Q99714); assay: Inhibition of human full length N-terminal GST-tagged 17beta-HSD10 expressed in Escherichia coli BL21 DE3 Codon plus using [6,7-3H]-labeled E2/E2 as substrate and NADH at 1 uM after 30 mins by HPLC based radioflow detection method
T4 sequence (whole entry): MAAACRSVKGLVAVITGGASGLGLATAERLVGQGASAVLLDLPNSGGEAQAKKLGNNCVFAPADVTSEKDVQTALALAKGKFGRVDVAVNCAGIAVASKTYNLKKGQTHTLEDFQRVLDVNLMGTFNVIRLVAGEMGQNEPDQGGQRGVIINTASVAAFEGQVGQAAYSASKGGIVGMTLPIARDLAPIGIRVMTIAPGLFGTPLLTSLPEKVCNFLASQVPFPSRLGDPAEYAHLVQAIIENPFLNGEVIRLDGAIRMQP

[6] = target: T5, ERalpha (estrogen receptor) (Homo sapiens, UniProt P03372); assay: Agonist activity at ERalpha (unknown origin) expressed in human U2OS cells after 24 hrs by luciferase reporter gene assay relative to E2; format: cell-based; conditions: U2OS cells expressing ERalpha, read-out: Activity
T5 sequence (P03372 whole entry): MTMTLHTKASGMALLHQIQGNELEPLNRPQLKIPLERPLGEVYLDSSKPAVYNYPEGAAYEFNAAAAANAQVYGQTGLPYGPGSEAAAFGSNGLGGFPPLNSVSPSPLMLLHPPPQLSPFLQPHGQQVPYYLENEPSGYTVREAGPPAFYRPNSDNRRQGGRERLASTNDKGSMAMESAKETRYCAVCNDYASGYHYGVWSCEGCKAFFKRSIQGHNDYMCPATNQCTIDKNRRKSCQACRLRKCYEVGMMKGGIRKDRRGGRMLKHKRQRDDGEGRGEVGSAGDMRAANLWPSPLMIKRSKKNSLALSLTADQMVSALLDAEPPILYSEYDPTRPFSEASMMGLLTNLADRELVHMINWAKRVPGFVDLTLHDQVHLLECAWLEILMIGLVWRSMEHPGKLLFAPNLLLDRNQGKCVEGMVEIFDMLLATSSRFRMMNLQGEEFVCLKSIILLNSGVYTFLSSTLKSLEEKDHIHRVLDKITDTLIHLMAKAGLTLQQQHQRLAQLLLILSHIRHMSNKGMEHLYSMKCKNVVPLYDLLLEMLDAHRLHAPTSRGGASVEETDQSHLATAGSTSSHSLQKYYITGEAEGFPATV

[7] = Cytotoxicity against HEK293 cells assessed as decrease in cell viability after 72 hrs by MTT assay; format: cell-based; conditions: human, read-out: IG50
[8] = Cytotoxicity against HEK293 cells assessed as cell survival at 20 uM after 72 hrs by MTT assay relative to control; format: cell-based; conditions: human, read-out: Survival
Estrogen receptor = target: T6, Estrogen receptor (Homo sapiens, UniProt P03372); assay: Agonist activity at ERalpha (unknown origin) expressed in human U2OS cells after 24 hrs by luciferase reporter gene assay; format: cell-based
T6 sequence (P03372 whole entry): T5 sequence (P03372 whole entry)

[9] = target: T7, 17-beta-hydroxysteroid dehydrogenase 14 (Homo sapiens) (UniProt Q9BPX1); assay: Inhibition of recombinant 17beta-HSD14 (unknown origin) expressed in Escherichia coli BL21 pLysS strain at 2 uM using E2 as substrate in presence of NAD measured continuously for 15 mins by fluorimetric method
T7 sequence (whole entry): T2 sequence (Q9BPX1 whole entry)

[10] = target: T7, 17-beta-hydroxysteroid dehydrogenase 14 (Homo sapiens); assay: Inhibition of recombinant 17beta-HSD14 (unknown origin) expressed in Escherichia coli BL21 pLysS strain at 100 uM using E2 as substrate in presence of NAD measured continuously for 15 mins by fluorimetric method

Row | inhibition [1] | solubility at 24 h, 200 µM [2] | Ki [3] | inhibition [4] | inhibition [5] | inhibition [9] | inhibition [10] | Structure (SMILES) | Emax at 24 h [6] | GI50 at 72 h [7] | viability at 72 h, 20 µM [8] | Activity (Estrogen receptor)
1 | 99% | > 200 µM | 42 nM | 100% | 19% | – | – | CN(c1ccc(F)c(O)c1)c1cccc(-c2cccc(O)c2F)n1 | – | – | – | –
2 | 57% | > 200 µM | 47 nM | 82% | inactive | – | – | Oc1cc(Nc2cccc(-c3cccc(O)c3F)n2)ccc1F | – | – | – | –
3 | 69% | > 200 µM | 58 nM | 100% | 17% | – | – | Oc1cc(Oc2cccc(-c3cccc(O)c3F)n2)ccc1F | – | – | – | –
4 | – | – | 336 nM | – | – | – | – | O=C(Nc1ccc(F)c(O)c1)c1cccc(-c2cccc(O)c2F)n1 | – | – | – | –
5 | – | – | 686 nM | – | – | – | – | O=C(Nc1cccc(-c2cccc(O)c2F)n1)c1ccc(F)c(O)c1 | – | – | – | –
6 | – | – | 2030 nM | – | – | – | – | CN(C(=O)c1ccc(F)c(O)c1)c1cccc(-c2cccc(O)c2F)n1 | – | – | – | –

Further lines, the compound ahead of its results:

Row | Structure (SMILES) | inhibition [1] | solubility at 24 h, 200 µM [2] | Ki [3] | inhibition [4] | inhibition [5] | inhibition [9] | inhibition [10] | Emax at 24 h [6] | GI50 at 72 h [7] | viability at 72 h, 20 µM [8] | Activity (Estrogen receptor)
7 | Nc1ccc2ccc(C(=O)c3ccc(F)c(O)c3)nc2c1 | 21% | > 200 µM | 34 nM | 83% | inactive | – | – | – | – | – | –
8 | O=C(c1ccc(F)c(O)c1)c1cccc(-c2cccc(O)c2F)n1 | 8% | > 200 µM | – | 56% | inactive | – | – | 13% | > 100000 nM | 80% | –
9 | O=C(c1ccc(F)c(O)c1)c1ccc2ccc(-c3nnn[nH]3)cc2n1 | inactive | 50 to 100 µM (≈ 16.8 to 33.5 µg/mL) | 10 nM | 52% | inactive | – | – | – | > 100000 nM | 80% | Not Active
10 | Cc1cc(-c2ccc3ccc(C(=O)c4ccc(F)c(O)c4)nc3c2)ccc1O | 11% | 13 to 25 µM (≈ 4.85 to 9.33 µg/mL) | 6 nM | 80% | inactive | – | – | – | – | – | –
11 | C=C(c1ccc(F)c(O)c1)c1cccc(-c2cccc(O)c2F)n1 | 88% | > 200 µM | 1.5 nM | 100% | inactive | – | – | – | > 100000 nM | 80% | –
12 | O=C(c1ccc(F)c(O)c1)c1ccc2ccccc2c1 | 64% | 25 to 50 µM (≈ 6.66 to 13.3 µg/mL) | 6 nM | 96% | inactive | – | – | – | – | – | –
13 | N#Cc1ccc2ccc(C(=O)c3ccc(F)c(O)c3)nc2c1 | inactive | 25 to 50 µM (≈ 7.31 to 14.6 µg/mL) | 9 nM | 56% | inactive | – | – | – | – | 80% | Not Active
14 | O=C(c1ccc(F)c(O)c1)c1ccc2cc(O)ccc2n1 | 20% | > 200 µM | 119 nM | 71% | inactive | – | – | – | > 100000 nM | 80% | –
15 | O=C(c1ccc(F)c(O)c1)c1ccc2ccccc2n1 | 6% | > 200 µM | 12 nM | 76% | inactive | 69% | – | – | – | – | –
16 | Cc1ccc2nc(C(=O)c3ccc(F)c(O)c3)ccc2c1 | 12% | 25 to 50 µM (≈ 7.03 to 14.1 µg/mL) | 6 nM | 78% | inactive | – | – | – | – | 80% | –
17 | COc1cc(C(=O)c2ccc3ccccc3n2)ccc1F | – | 100 to 200 µM (≈ 28.1 to 56.3 µg/mL) | – | – | – | – | 21% | – | – | – | –
